Paper PMC10269165 (Antimicrobial Agents and Chemotherapy, 2023)

Key:
[1] = system: nematode PMTs (HcPMT1, AcPMT1, AsPMT, DvPMT1, OdPMT1, TcPMT); assay: Cross-inhibition of the panel of nematode PMTs (statements on all PMTs together); type: biochemical, parasitic nematodes; conditions: for cross-inhibitory activity against all the five PMTs: 40 μM, AcPMT1, AsPMT, DvPMT1, OdPMT1, TcPMT; for SI values based on the IC50^Enzyme values of the PMT proteins tested: all six PMTs of Table 4
Experimental: The chemical compounds were obtained from the National Cancer Institute/Developmental Therapeutics Program Open Chemical Repository. The library consisted of 419 compounds categorized as Natural Products Set IV (see Table S1). Compounds were individually reconstituted in molecular biology grade dimethyl sulfoxide (DMSO) from Sigma-Aldrich to a stock concentration of 10 mM and stored at −20°C until use. Initial screening was conducted using recombinant HcPMT1 protein as enzyme in the methyltransferase assay, with test compounds at a final concentration of 40 μM. The test reaction mixtures consisted of 40 μM test compound, 2.5 μL of SAM-free methyltransferase reaction buffer, 150 μM PE (pH 7.5), 120 μM SAM (pH 7.8), and 20 ng/μL of HcPMT1 protein, and the final volume made up to 50 μL with 1× transferase assay buffer. […] To the positive reaction mixture, instead of test compound, an equivalent volume of DMSO was added. In the negative-control reaction mixture, instead of HcPMT1 and test compound, equivalent volumes of 1× transferase buffer and DMSO, respectively, were added. Detection buffer (100 μL) containing fluorescence substrate was added into each reaction mixture. The reactions were prepared in triplicate wells in 96-well plates. The plates were covered in aluminum foil and incubated at room temperature with agitation for 30 min, followed by reading the fluorescence at 380EX/520EM. The mean percent inhibition (MPI) of the test compound on enzymatic activity was calculated using the following formula: MPI = ΔRFUpositive control − ΔRFUcompounds/ΔRFUpositive control × 100, where the positive control is a reaction without compound but with recombinant PMT protein and a volume of DMSO equivalent to that of compound used in test reactions; the negative control is the reaction without protein and compounds, but with volumes of dialysis buffer and DMSO equivalent to protein and compound added in the test reaction mixtures, respectively; ΔRFUpositive control represents the absolute relative fluorescence units (RFU) for the positive control, which equals RFUpositive control – RFUnegative control; and ΔRFUcompounds represents the absolute RFU value for the sample with the compounds, which equals RFUcompounds – RFUnegative control.
Compounds that had shown more than 50% inhibition on HcPMT1 activity and had no or very low cytotoxicity against HCT-8 cells were further tested for cross-inhibitory effect against the enzymatic activity of other recombinant PMT proteins (AcPMT1, AsPMT, DvPMT1, OdPMT, and TcPMT) at 40 μM. The enzymatic assay was set up as described above, with the respective PMT protein as enzyme. Compounds that depicted cross-inhibitory activity were further tested at various concentrations to derive their half-maximal effective concentrations (EC50) using nonlinear regression analysis by GraphPad Prism software.

[2] = system: PMT-complemented mutant yeast; assay: Growth inhibition of complemented yeast (statement on PMT-complemented strains together); type: cell-based, Saccharomyces cerevisiae; conditions: various concentrations
Experimental: To determine the effect of PMT inhibitors on the growth of PMT- and LacZ-complemented pem1Δpem2Δ S. cerevisiae, the yeast cells were first starved of choline as described above, and the cells were diluted to an OD600 of ~0.6. The PMT-complemented yeast cells were cultured in SG medium (3.4g/L yeast nitrogen base without amino acids, 2% galactose, 30 mg/L histidine, 100 mg/L leucine, 100 mg/L adenine, and 50 mg/L tryptophan) supplemented with 1 mM ethanolamine hydrochloride, while the LacZ-complemented yeast cells were cultured in SG medium supplemented with 1 mM choline chloride. Compounds that depicted cross-inhibitory activity against PMT proteins in vitro were added at various concentrations to the cultures. As a negative control, DMSO (at a final concentration not exceeding 2% [vol/vol]) was added to yeast cultures designated control cultures. The cultures were incubated at 30°C with shaking at 275 rpm for 4 days. On a daily basis during the course of culture, 200-μL portions of culture aliquots were taken, and their OD600s were measured using a microplate reader. In preliminary work, we had observed that the growth of PMT- and LacZ-complemented pem1Δpem2Δ S. cerevisiae plateaued at 3 to 4 days of culture. Therefore, to determine the inhibitory effect of nematode PMT inhibitors on the growth of PMT- and LacZ-complemented pem1Δpem2Δ S. cerevisiae, measurements taken on day 3 were used. The results were presented as percentage of growth rate using the following formula: PGR = growth rate (plus inhibitor)/growth rate (minus inhibitor) × 100 where the percent growth rate (PGR) is the growth rate of inhibitor-treated PMT- or LacZ- complemented Pem1Δpem2Δ S. cerevisiae, considering the growth rate of untreated PMT- or LacZ- complemented Pem1Δpem2Δ S. cerevisiae is 100%; the growth rate = ΔA600^Day 3/ΔA600^Day 0; ΔA600^Day 0 is the absolute value of A600 of PMT- or LacZ- complemented pem1Δ/pem2Δ S. cerevisiae at day 0, which equals the A600 of the culture minus the A600 of the growth medium only; ΔA600^Day 3 is the absolute value of the A600 of PMT- or LacZ complemented pem1Δ/pem2Δ S. cerevisiae at day 3, which equals the A600 of the culture at day 3 minus the A600 of growth medium only; the growth rate (plus inhibitor) is the growth rate of PMT- or -LacZ complemented pem1Δpem2Δ S. cerevisiae in the presence of test compound; and the growth rate (minus inhibitor) is the growth rate of the PMT- or LacZ complemented pem1Δ/pem2Δ S. cerevisiae in the absence of test compound, but with a volume of DMSO equal to that of compound added in the treated culture. The dose-response curves were generated with GraphPad Prism software and IC50 concentrations of the compounds in PMT- and LacZ-complemented yeast cells derived.

| Structure (SMILES) | cross-inhibitory activity against all the five PMTs [1] | SI values based on the IC50^Enzyme values of the PMT proteins tested [1] | effect on the growth of PMT-complemented mutant yeast [2] |
| --- | --- | --- | --- |
| O=c1c(O)cccc2cc(O)c(O)c(O)c12 [NSC35676, purpurogallin] | significant cross-inhibitory activity | > 1 | concentration-dependent inhibitory effect |
| CO[C@@]12[C@H](COC(N)=O)C3=C(C(=O)C(C)=C(N)C3=O)N1C[C@H]1[C@@H]2N1C (stereo partly drawn) [NSC56410] | significant cross-inhibitory activity |  | concentration-dependent inhibitory effect |
| COc1ccc(-c2c(C)c(C(=O)O)nc(-c3ccc4c(O)c(OC)c5c(c4n3)=NC(C)(C)N=5)c2N)c(O)c1OC [NSC62709] | significant cross-inhibitory activity | > 1 | concentration-dependent inhibitory effect |
| COc1cc(C)c2c(c1C=O)Oc1c(c(C)c(O)c3c1C(O)OC3=O)OC2=O (stereo not drawn) [NSC87511] | significant cross-inhibitory activity |  | concentration-dependent inhibitory effect |
| CO[C@H]1/C=C/O[C@@]2(C)Oc3c(C)c(O)c4c(O)c(cc(O)c4c3C2=O)NC(=O)/C(C)=C\C=C\[C@H](C)[C@H](O)[C@@H](C)[C@@H](O)[C@@H](C)[C@H](OC(C)=O)[C@@H]1C [NSC133100] | significant cross-inhibitory activity | > 1 | concentration-dependent inhibitory effect |
| CO[C@@H]1/C=C\O[C@]2(C)Oc3c(C)c(O)c4c(O)c(c(CN(C)C)c(O)c4c3C2=O)NC(=O)/C(C)=C\C=C[C@@H](C)[C@@H](O)[C@H](C)[C@@H](O)[C@H](C)[C@H](OC(C)=O)[C@@H]1C [NSC145612] | significant cross-inhibitory activity | > 1 | concentration-dependent inhibitory effect |
| CO[C@@H]1/C=C/O[C@@]2(C)Oc3c(C)c(O)c4c(c3C2=O)C(=N[C@@H]2CC[C@@H](O)O[C@H]2C)C=C(NC(=O)/C(C)=C\C(=O)[C@@H]2C[C@@H]2[C@H](O)[C@@H](C)[C@@H](O)[C@@H](C)[C@H](OC(C)=O)[C@@H]1C)C4=O [NSC177383] | significant cross-inhibitory activity | > 1 |  |
